The record followed here is patent US20240376097A1, “BCL-2 Inhibitor” (BeiGene Ltd., priority 2020, published 2024).

For assay [1], the target named is Recombinant human Bcl-2 protein (Homo sapiens (Human), UniProt P10415). Description: Bcl-2 TR-FRET Assay. In kind it is binding. The procedure, abridged: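 0.05 nM recombinant Bcl-2 preincubated 0.5 h at room temperature with 10-point compound dilutions (top final 1, 0.1, 0.02 or 0.01 uM) in pH 7.5 phosphate buffer. FITC-Bak peptide (0.5 nM) and anti-6His Tb cryptate then added for 1 h. TR-FRET read; IC50 from four-parameter logistic fit.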
In general terms: Time-resolved FRET reads energy transfer from a long-lived donor to a nearby acceptor.

Assay [2] relates to recombinant human Bcl-2-G101V protein. Description: Bcl-2-G101V TR-FRET Assay. In kind it is binding. To be noted: ratio of biochemical IC50 Bcl-2 G101V / Bcl-2 WT. The procedure, abridged: (§1)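 Displacement of ligand from recombinant human Bcl-2-G101V measured by TR-FRET (ex337 nm, em490/520 nm), inhibition derived from the 490/520 ratio across compound titrations. IC50 from four-parameter logistic fit.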

The target of assay [3] is recombinant human Bcl-2-G101V protein (Homo sapiens (Human), UniProt P10415, G101V). Description: Bcl-2-G101V TR-FRET Assay. The format is binding. The following applies: Bcl-2 G101V mutant, TR-FRET; read-out: Biochemical assay (IC50, nM) Bcl-2 G101V. In short, it runs like this: as §1
The target in assay [4] is recombinant human Bcl-2 D103Y protein (Homo sapiens (Human), UniProt P10415, D103Y). As to the kind of experiment: Bcl-2-D103Y Biochemical Assay (TR-FRET). To be noted: for IC50: TR-FRET, FITC labeled Bak peptide; for ratio of Bcl-2 D103Y/Bcl-2 wt, compared with F91b in WO2019210828: comparison in words; for Ratio of Bcl-2 D103Y/Bcl-2 WT: ratio of IC50. In kind it is binding. In short, it runs like this:
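Recombinant human Bcl-2 D103Y binding to its ligand measured by TR-FRET (ex 337 nm, em 490/520 nm) with increasing compound concentrations. Percent inhibition from the 490/520 nm ratio; IC50 from four-parameter logistic fit.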

Assay [5] deals with BCL-2 G101V knock-in cell line H96 (derive from RS4;11). Description: Bcl 2-G101V Knock-In RS4;11 Cell Proliferation Assay. In kind it is cell-based. The following applies: Homo sapiens, RS4;11 Bcl-2 G101V knock-in clone H96, 48 hrs, CellTiter-GLO, read-out: Cellular proliferation assay (IC50, nM) RS4. In short, it runs like this: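 H96, a CRISPR-generated RS4;11 clone carrying BCL2-G101V knock-in (WES/RNA-seq validated), seeded 50,000 per well and exposed 48 h at 37 °C to 10-point dilutions topping at 1 or 10 μM. Viability by CellTiter-Glo luminescence; mean IC50.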
A general note: ATP-based viability assays read luminescence as a measure of living cells.

Assay [6] relates to RS4;11 (BCL-2 dependent acute lymphoblastic leukemia cell line). Description: RS4;11 Cell Proliferation Assay. The format is cell-based. The following applies: Homo sapiens, RS4-11, RS4;11 cells, read-out: Cellular proliferation assay (IC50, nM) RS4. In short, it runs like this: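 RS4;11 cells, 50,000 per well in RPMI-1640 with 10% FBS, treated 48 h at 37 °C with a 10-point dilution series topping at 1 μM. Viability read by CellTiter-Glo ATP luminescence; mean IC50 reported.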

[7] abbreviates: Bcl-2 wild type, TR-FRET, read-out: Biochemical assay (IC50, nM) Bcl-2 WT.
Setting [8] is: wild type Bcl-2, unit inferred, read-out: Bcl-2 WT.

Like-named read-outs stand apart in the source and are kept apart here.

Take `CC(C)c1ccccc1C1CN(Cc2ccc3sccc3c2)CCN1C1CC2(CCN(c3ccc(C(=O)NS(=O)(=O)c4ccc(NC[C@H]5CC[C@](C)(O)CC5)c([N+](=O)[O-])c4)c(Oc4cnc5[nH]ccc5c4)c3)CC2)C1` (some centres unmarked) [Example 58, 2-((1H-pyrrolo[2,3-b]pyridin-5-yl)oxy)-4-(2-(4-(benzo[b]thiophen-5-ylmethyl)-2-(2-isopropylphenyl)piperazin-1-yl)-7-azaspiro[3.5]nonan-7-yl)-N-((4-((((1r,4r)-4-hydroxy-4-methylcyclohexyl)methyl)amino)-3-nitrophenyl)sulfonyl)benzamide]: the IC50 in assay [1] (setting [7]) stood at 0.62 nM; in assay [1] (setting [8]), 0.62 nM; in assay [3] it was 2 nM; in assay [4], 1.8 nM; in assay [5] it was 7.6 nM; in assay [6], 0.74 nM. Besides, the “Ratio of Bcl-2 G101V/WT” value in assay [2] was found to be 3.2. In assay [4], the “ratio of Bcl-2 D103Y/Bcl-2 wt, compared with F91b in WO2019210828” value was “significantly lower”. Besides, in assay [4], the “Ratio of Bcl-2 D103Y/Bcl-2 WT” value was 2.9.
On to `CC(C)c1ccccc1C1CN(Cc2cccc3sccc23)CCN1C1CC2(CCN(c3ccc(C(=O)NS(=O)(=O)c4ccc(NC[C@H]5CC[C@](C)(O)CC5)c([N+](=O)[O-])c4)c(Oc4cnc5[nH]ccc5c4)c3)CC2)C1` (some centres unmarked) [Example 59, 2-((1H-pyrrolo[2,3-b]pyridin-5-yl)oxy)-4-(2-(4-(benzo[b]thiophen-4-ylmethyl)-2-(2-isopropylphenyl)piperazin-1-yl)-7-azaspiro[3.5]nonan-7-yl)-N-((4-((((1r,4r)-4-hydroxy-4-methylcyclohexyl)methyl)amino)-3-nitrophenyl)sulfonyl)benzamide], for which the IC50 in assay [1] (setting [7]) was 0.73 nM; in assay [1] (setting [8]) it was 0.73 nM; in assay [3], 3 nM; in assay [4] it was 3.2 nM; in assay [5] it was 10.4 nM; in assay [6] it was 0.8 nM. In addition, in assay [2], the “Ratio of Bcl-2 G101V/WT” value is 4.1. For the same compound, the “ratio of Bcl-2 D103Y/Bcl-2 wt, compared with F91b in WO2019210828” value in assay [4] was “significantly lower”. In assay [4], the “Ratio of Bcl-2 D103Y/Bcl-2 WT” value was determined as 4.4.
For `CC(C)c1ccccc1C1CC(Oc2ccccc2)CCN1C1CC2(CCN(c3ccc(C(=O)NS(=O)(=O)c4ccc(NC[C@H]5CC[C@](C)(O)CC5)c([N+](=O)[O-])c4)c(Oc4cnc5[nH]ccc5c4)c3)CC2)C1` (some centres unmarked) [Example 68, 2-((1H-pyrrolo[2,3-b]pyridin-5-yl)oxy)-N-((4-((((1r,4r)-4-hydroxy-4-methylcyclohexyl)methyl)amino)-3-nitrophenyl)sulfonyl)-4-(2-(2-(2-isopropylphenyl)-4-phenoxypiperidin-1-yl)-7-azaspiro [3.5]nonan-7-yl)benzamide], the IC50 in assay [1] (setting [7]) was found to be 0.2 nM; in assay [1] (setting [8]), 0.2 nM; in assay [3], 0.81 nM; in assay [4] it was 0.87 nM; in assay [5], 4.7 nM; in assay [6], 0.47 nM. The “Ratio of Bcl-2 G101V/WT” value in assay [2] is reported as 4. In assay [4], the “ratio of Bcl-2 D103Y/Bcl-2 wt, compared with F91b in WO2019210828” value was “significantly lower”. For the same compound, the “Ratio of Bcl-2 D103Y/Bcl-2 WT” value in assay [4] worked out at 4.3.
As to `CC(C)c1ccccc1C1CN(Cc2cnn(C3CC3)c2)CCN1C1CC2(CCN(c3ccc(C(=O)NS(=O)(=O)c4ccc(NC[C@H]5CC[C@](C)(O)CC5)c([N+](=O)[O-])c4)c(Oc4cnc5[nH]ccc5c4)c3)CC2)C1` (some centres unmarked) [Example 70, 2-((1H-pyrrolo[2,3-b]pyridin-5-yl)oxy)-4-(2-(4-((1-cyclopropyl-1H-pyrazol-4-yl)methyl)-2-(2-isopropylphenyl)piperazin-1-yl)-7-azaspiro[3.5]nonan-7-yl)-N-((4-((((1r,4r)-4-hydroxy-4-methylcyclohexyl)methyl)amino)-3-nitrophenyl)sulfonyl)benzamide], the IC50 turned out to be 0.014 nM in assay [1] (setting [7]); 0.014 nM in assay [1] (setting [8]); 0.13 nM in assay [3]; 0.1 nM in assay [4]; 1.5 nM in assay [5]; 0.38 nM in assay [6]. In addition, the “Ratio of Bcl-2 G101V/WT” value in assay [2] is reported as 9. Besides, the “Ratio of Bcl-2 D103Y/Bcl-2 WT” value in assay [4] worked out at 7.1.
For the compound `COc1nn(C)cc1CN1CCN(C2CC3(CCN(c4ccc(C(=O)NS(=O)(=O)c5ccc(NC[C@H]6CC[C@](C)(O)CC6)c([N+](=O)[O-])c5)c(Oc5cnc6[nH]ccc6c5)c4)CC3)C2)C(c2ccccc2C(C)C)C1` (some centres unmarked) [Example 71, 2-((1H-pyrrolo[2,3-b]pyridin-5-yl)oxy)-N-((4-((((1r,4r)-4-hydroxy-4-methylcyclohexyl)methyl)amino)-3-nitrophenyl)sulfonyl)-4-(2-(2-(2-isopropylphenyl)-4-((3-methoxy-1-methyl-1H-pyrazol-4-yl)methyl)piperazin-1-yl)-7-azaspiro[3.5]nonan-7-yl)benzamide], the IC50 in assay [1] (setting [7]) was 0.02 nM; in assay [1] (setting [8]), 0.02 nM; in assay [3], 0.17 nM; in assay [4], 0.15 nM; in assay [5], 2 nM; in assay [6] it was 0.43 nM. Further, the “Ratio of Bcl-2 G101V/WT” value in assay [2] amounted to 8.3. In addition, the “Ratio of Bcl-2 D103Y/Bcl-2 WT” value in assay [4] amounted to 7.6.
Consider `COc1ccc(CN2CCN(C3CC4(CCN(c5ccc(C(=O)NS(=O)(=O)c6ccc(NC[C@H]7CC[C@](C)(O)CC7)c([N+](=O)[O-])c6)c(Oc6cnc7[nH]ccc7c6)c5)CC4)C3)C(c3ccccc3C3CC3)C2)cc1` (some centres unmarked) [Example 73, 2-((1H-pyrrolo[2,3-b]pyridin-5-yl)oxy)-4-(2-(2-(2-cyclopropylphenyl)-4-(4-methoxybenzyl)piperazin-1-yl)-7-azaspiro[3.5]nonan-7-yl)-N-((4-((((1r,4r)-4-hydroxy-4-methylcyclohexyl)methyl)amino)-3-nitrophenyl)sulfonyl)benzamide], for which the IC50 in assay [1] (setting [7]) was 0.06 nM; in assay [1] (setting [8]), 0.06 nM; in assay [3], 0.47 nM; in assay [4], 0.31 nM; in assay [5] it was 2.4 nM; in assay [6], 0.37 nM. Further, the “Ratio of Bcl-2 G101V/WT” value in assay [2] is 7.9. Moreover, the “Ratio of Bcl-2 D103Y/Bcl-2 WT” value in assay [4] is recorded as 5.1.
With `COc1cc(CN2CCN(C3CC4(CCN(c5ccc(C(=O)NS(=O)(=O)c6ccc(NC[C@H]7CC[C@](C)(O)CC7)c([N+](=O)[O-])c6)c(Oc6cnc7[nH]ccc7c6)c5)CC4)C3)C(c3ccccc3C(C)C)C2)cc(OC)c1OC` (some centres unmarked) [Example 75, 2-((1H-pyrrolo[2,3-b]pyridin-5-yl)oxy)-N-((4-((((1r,4r)-4-hydroxy-4-methylcyclohexyl)methyl)amino)-3-nitrophenyl)sulfonyl)-4-(2-(2-(2-isopropylphenyl)-4-(3,4,5-trimethoxybenzyl)piperazin-1-yl)-7-azaspiro[3.5]nonan-7-yl) benzamide], the IC50 was 0.059 nM in assay [1] (setting [7]); 0.059 nM in assay [1] (setting [8]); 0.28 nM in assay [3]; 0.22 nM in assay [4]; 1.5 nM in assay [5]; 0.35 nM in assay [6]. Further, the “Ratio of Bcl-2 G101V/WT” value in assay [2] was found to be 4.7. In addition, in assay [4], the “ratio of Bcl-2 D103Y/Bcl-2 wt, compared with F91b in WO2019210828” value is “significantly lower”. Also, the “Ratio of Bcl-2 D103Y/Bcl-2 WT” value in assay [4] is recorded as 3.6.
As to `CC(C)c1ccccc1C1CN(Cc2ccc3c(c2)OCCO3)CCN1C1CC2(CCN(c3ccc(C(=O)NS(=O)(=O)c4ccc(NC[C@H]5CC[C@](C)(O)CC5)c([N+](=O)[O-])c4)c(Oc4cnc5[nH]ccc5c4)c3)CC2)C1` (some centres unmarked) [Example 78, 2-((1H-pyrrolo[2,3-b]pyridin-5-yl)oxy)-4-(2-(4-((2,3-dihydrobenzo[b] [1,4]dioxin-6-yl)methyl)-2-(2-isopropylphenyl)piperazin-1-yl)-7-azaspiro[3.5]nonan-7-yl)-N-((4-((((1r,4r)-4-hydroxy-4-methylcyclohexyl)methyl)amino)-3-nitrophenyl)sulfonyl)benzamide], the IC50 in assay [1] (setting [7]) turned out to be 0.21 nM; in assay [1] (setting [8]), 0.21 nM; in assay [3], 0.98 nM; in assay [4], 0.62 nM; in assay [5], 2.6 nM; in assay [6] it was 0.42 nM. In addition, in assay [2], the “Ratio of Bcl-2 G101V/WT” value was found to be 4.6. For the same compound, the “Ratio of Bcl-2 D103Y/Bcl-2 WT” value in assay [4] came to 2.9.
